Where a SMILES comes first, the peptide text is derived from it. [ ]: non-standard residue; d: D form. Ac6c = NC1(C(=O)O)CCCCC1; Ac5c = NC1(C(=O)O)CCCC1; Sar = CNCC(=O)O
Columns and labels:
Assay type in all cases: cell-based
human AT1R [1] = biological target: T1, human AT1R (Homo sapiens, UniProt P30556); assay: IP1 accumulation assay (IP1 G-protein assay), human AT1R; settings: for Emax: read-out: Span (relative to hAngII)
T1 sequence (P30556 1-359): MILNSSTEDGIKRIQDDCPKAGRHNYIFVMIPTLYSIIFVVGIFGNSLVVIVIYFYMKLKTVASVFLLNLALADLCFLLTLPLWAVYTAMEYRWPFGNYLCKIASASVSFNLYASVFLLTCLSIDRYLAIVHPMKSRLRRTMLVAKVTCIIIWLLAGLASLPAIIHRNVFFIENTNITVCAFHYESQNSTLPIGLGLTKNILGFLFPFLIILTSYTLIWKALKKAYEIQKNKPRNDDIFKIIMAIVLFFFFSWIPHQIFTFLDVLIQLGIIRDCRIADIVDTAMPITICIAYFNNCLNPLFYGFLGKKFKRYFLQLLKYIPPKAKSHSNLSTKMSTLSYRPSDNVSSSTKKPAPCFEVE
Procedure: (§1) A secondary measure of G protein coupling efficacy was also performed. IP3 is generated by activation of phospholipase C by Gα-q. IP3 is degraded to IP1, which can be forced to accumulate in cells by blocking degradation with lithium chloride. Thus we measured accumulation of IP1 to determine ligand efficacy for G protein activation.
(§2) IP1 accumulation generated by human and rat angiotensin 2 type 1 receptor (human AT1R and rat AT1aR, respectively) was measured with IP-One Tb kits purchased from Cisbio and used per the manufacturer's instructions. Clonal stably transfected cell lines expressing human AT1TR or rat AT1aR were used for all experiments.
(§3) For assays, 4,000-8,000 cells were seeded per well in 384-well small-volume microplates “HiBase” small-volume plate in volumes of 20 uL and allowed to grow overnight at 37° C. in 5% CO2. Cell growth media was then replaced with stimulation buffer supplied by Cisbio containing 50 mM lithium chloride. […] For agonist detection, peptides were then further diluted in stimulation buffer to add peptide to the cells to reach final concentrations ranging from 100 uM to 1 pM. Following addition of peptides, cells were incubated at 37° C. in 5% CO2 for 30 minutes and then lysed with 4 uL of pre-mixed HTRF IP-One reagents diluted per manufacturer's instructions (Cisbio). Microplates were incubated for 60-90 minutes at room temperature and then time-resolved fluorescence intensities were measured using a PHERAstar Plus microplate reader from BMG Labtech. IP1 accumulation was measured as change in ratio of time-resolved fluorescent intensities measured at 665 nm and 620 nm.

rat AT1aR [2] = biological target: T2, rat AT1aR (Rattus norvegicus, UniProt P25095); assay: IP1 accumulation assay (IP1 G-protein assay), rat AT1aR; settings: for Emax: read-out: Span (relative to hAngII)
T2 sequence (P25095 1-359): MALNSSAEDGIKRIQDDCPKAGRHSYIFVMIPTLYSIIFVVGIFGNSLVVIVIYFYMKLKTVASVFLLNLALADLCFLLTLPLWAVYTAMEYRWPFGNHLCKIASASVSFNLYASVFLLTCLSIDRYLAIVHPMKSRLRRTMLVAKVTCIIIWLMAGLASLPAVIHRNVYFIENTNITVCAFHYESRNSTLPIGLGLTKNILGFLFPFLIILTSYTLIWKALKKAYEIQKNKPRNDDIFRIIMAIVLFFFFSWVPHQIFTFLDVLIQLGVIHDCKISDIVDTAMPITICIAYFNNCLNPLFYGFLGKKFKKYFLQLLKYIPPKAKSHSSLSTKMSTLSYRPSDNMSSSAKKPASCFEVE
Procedure: as §1, §2, §3

human AT1R [3] = biological target: T1, human AT1R; assay: beta-arrestin2 recruitment assay (PathHunter), human AT1R; settings: for Emax: 1 h, read-out: Span (relative to hAngII)
Procedure: (§4) The proximal event in β-arrestin function mediated by GPCRs is recruitment to receptors following ligand binding and receptor phosphorylation by GRK's. Thus, the measure of β-arrestin recruitment was used to determine ligand efficacy for β-arrestin function.
(§5) B-arrestin-2 recruitment to the human and rat angiotensin 2 type 1 receptor (human AT1R and rat AT1aR, respectively) was measured with the PathHunter™ μl-arrestin assay (DiscoveRx Corporation, Fremont Calif.). Cells, plasmid(s), and detection reagent(s) were purchased from DiscoveRx, and assays were performed per manufacturer's instructions. Human AT1R and rat AT1aR were cloned into the pCMV-ProLink vector, verified by sequencing, and transfected into PathHunter β-arrestin HEK293 cells. Stably transfected clonal cell lines were selected with Hygromycin and G418. These clonal cell lines were used for all experiments.
(§6) For assays, 4,000-8,000 cells were seeded per well in 384-well microplates “HiBase” small-volume plate in volumes of 20 uL and grown overnight in the incubator (37° C., 5% CO2, saturated humidity). Peptides were dissolved in DMSO to a concentration of 10 mM. Peptides were then further diluted in assay buffer (Hank's balanced salt solution with 20 mM HEPES) to add peptide to the cells to reach final concentrations ranging from 100 μM to 1 pM. Cells were then incubated for 60 minutes at 37° C. in 5% CO2, followed by addition of 2 μL of PathHunter Detection Reagent to each well. The microplates were then incubated at room temperature for 60 minutes, and then luminescence was measured using a PHERAstar Plus microplate reader from BMG Labtech. B-arrestin-2 recruitment to receptors was measured as relative luminescence intensity expressed in arbitrary units.

rat AT1aR [4] = biological target: T2, rat AT1aR; assay: beta-arrestin2 recruitment assay (PathHunter), rat AT1aR; settings: for Emax: 1 h, read-out: Span (relative to hAngII)
Procedure: as §4, §5, §6

Structure (SMILES) | EC50 (human AT1R [1]; read-out: EC50) [nM] | EC50 (human AT1R [1]; read-out: pEC50 (converted)) [nM] | EC50 (rat AT1aR [2]; read-out: EC50) [nM] | Emax (rat AT1aR [2]) [%] | EC50 (rat AT1aR [2]; read-out: pEC50 (converted)) [nM] | Emax (human AT1R [3]) [%] | EC50 (human AT1R [3]; read-out: EC50) [nM] | EC50 (human AT1R [3]; read-out: pEC50 (converted)) [nM] | Emax (rat AT1aR [4]) [%] | EC50 (rat AT1aR [4]; read-out: EC50) [nM] | EC50 (rat AT1aR [4]; read-out: pEC50 (converted)) [nM] | EC50 (nM) (human AT1R [1]) | pEC50 (human AT1R [1]) | Emax (human AT1R [1]) [%]
CNCC(=O)N[C@@H](CCCNC(=N)N)C(=O)N[C@H](C(=O)N[C@@H](Cc1ccc(O)cc1)C(=O)NC1(C(=O)N[C@@H](Cc2c[nH]cn2)C(=O)N2CCC[C@H]2C(=O)N[C@@H](CO)C(=O)O)CCCC1)C(C)C [SEQ ID NO: 22, Sar-Arg-Val-Tyr-cyPen-His-Pro-Ser] (H-[Sar]RVY[Ac5c]HPS-OH) | > 1.3 | > 0.631 | > 0.6 | < 104 | > 0.631 | < 101 | > 3.2 | > 3.16 | < 105 | > 3.2 | > 3.16 |  |  | 
CNCC(=O)N[C@@H](CCCNC(=N)N)C(=O)N[C@H](C(=O)N[C@@H](Cc1ccc(O)cc1)C(=O)NC1(C(=O)N[C@@H](Cc2c[nH]cn2)C(=O)N2CCC[C@H]2C(=O)N[C@H](C)C(=O)O)CCCC1)C(C)C [SEQ ID NO: 59, Sar-Arg-Val-Tyr-cyPen-His-Pro-D-Ala] |  |  | > 0.6 | < 104 | > 0.631 | < 101 | > 3.2 | > 3.16 | < 105 | > 3.2 | > 3.16 | Inactive | Inactive | 
CC[C@H](C)[C@H](NC(=O)[C@@H]1CCCN1C(=O)[C@H](Cc1c[nH]cn1)NC(=O)C1(NC(=O)[C@H](Cc2ccc(O)cc2)NC(=O)[C@@H](NC(=O)[C@H](CCCNC(=N)N)NC(=O)CNC)C(C)C)CCCCC1)C(=O)O [SEQ ID NO: 11, Sar-Arg-Val-Tyr-cyHex-His-Pro-Ile] (H-[Sar]RVY[Ac6c]HPI-OH) | > 1.3 | > 0.631 | > 0.6 |  | > 0.631 | < 101 | > 3.2 | > 3.16 | < 105 | > 3.2 | > 3.16 |  |  | < 103
CNCC(=O)N[C@@H](CCCNC(=N)N)C(=O)N[C@H](C(=O)N[C@@H](Cc1ccc(O)cc1)C(=O)N1CCC[C@H]1C(=O)N[C@@H](Cc1c[nH]cn1)C(=O)N1CCC[C@H]1C(=O)N[C@H](C(=O)O)C(C)C)C(C)C [SEQ ID NO: 6, Sar-Arg-Val-Tyr-Pro-His-Pro-Val] (H-[Sar]RVYPHPV-OH; N-terminus and C-terminus assumed) |  |  |  | < 104 |  | < 101 |  |  | < 105 |  |  |  |  | < 103
CNCC(=O)N[C@@H](CCCNC(=N)N)C(=O)N[C@H](C(=O)N[C@@H](Cc1ccc(O)cc1)C(=O)NC1(C(=O)N[C@@H](Cc2c[nH]cn2)C(=O)N2CCC[C@H]2C(=O)N[C@@H](Cc2c[nH]c3ccccc23)C(=O)O)CCCCC1)C(C)C [SEQ ID NO: 54, Sar-Arg-Val-Tyr-cyHex-His-Pro-Trp] (H-[Sar]RVY[Ac6c]HPW-OH) | > 1.3 | > 0.631 | > 0.6 | < 104 | > 0.631 | < 101 | > 3.2 | > 3.16 | < 105 | > 3.2 | > 3.16 |  |  | < 103
CNCC(=O)N[C@@H](CCCNC(=N)N)C(=O)N[C@H](C(=O)N[C@@H](Cc1ccc(O)cc1)C(=O)NC1(C(=O)N[C@@H](Cc2c[nH]cn2)C(=O)N2CCC[C@H]2C(=O)N[C@@H](CCSC)C(=O)O)CCCCC1)C(C)C [SEQ ID NO: 16, Sar-Arg-Val-Tyr-cyHex-His-Pro-Met] (H-[Sar]RVY[Ac6c]HPM-OH) | > 1.3 | > 0.631 | > 0.6 | < 104 | > 0.631 | < 101 | > 3.2 | > 3.16 | < 105 | > 3.2 | > 3.16 |  |  | < 103
CNCC(=O)N[C@@H](CCCNC(=N)N)C(=O)N[C@H](C(=O)N[C@@H](Cc1ccc(O)cc1)C(=O)NC1(C(=O)N[C@@H](Cc2c[nH]cn2)C(=O)N2CCC[C@H]2C(=O)N[C@@H](CC(C)C)C(=O)O)CCCCC1)C(C)C [SEQ ID NO: 12, Sar-Arg-Val-Tyr-cyHex-His-Pro-Leu] (H-[Sar]RVY[Ac6c]HPL-OH) | > 1.3 | > 0.631 | > 0.6 | < 104 | > 0.631 | < 101 | > 3.2 | > 3.16 | < 105 | > 3.2 | > 3.16 |  |  | < 103
CC[C@H](C)[C@H](NC(=O)[C@@H]1CCCN1C(=O)[C@H](Cc1c[nH]cn1)NC(=O)C1(NC(=O)[C@H](Cc2ccc(O)cc2)NC(=O)[C@@H](NC(=O)[C@H](CCCN=C(N)N)NC(=O)CNC)C(C)C)CCCC1)C(=O)O [SEQ ID NO: 18, Sar-Arg-Val-Tyr-cyPen-His-Pro-Ile] (H-[Sar]RVY[Ac5c]HPI-OH) | > 1.3 | > 0.631 | > 0.6 |  | > 0.631 |  | > 3.2 | > 3.16 |  | > 3.2 | > 3.16 |  |  | 
CNCC(=O)N[C@@H](CCCNC(=N)N)C(=O)N[C@H](C(=O)N[C@@H](Cc1ccc(O)cc1)C(=O)NC1(C(=O)N[C@@H](Cc2c[nH]cn2)C(=O)N2CCC[C@H]2C(=O)N[C@@H](Cc2c[nH]cn2)C(=O)O)CCCCC1)C(C)C [SEQ ID NO: 37, Sar-Arg-Val-Tyr-cyHex-His-Pro-His] (H-[Sar]RVY[Ac6c]HPH-OH) |  |  | > 0.6 | < 104 | > 0.631 | < 101 | > 3.2 | > 3.16 | < 105 | > 3.2 | > 3.16 |  |  | 
